Data: patent US20220315554A1, “COMPOUNDS COMPRISING A […] LIGAND AND USE THEREOF” (priority 2019, published 2022)
Numbered stars: 1 amine (or outer) side, 2 acyl side, 3 side chain; on linkers, the order of the positions; unused ones are H or OH. Bridge positions count the residues as written; N and C are the ends. Square brackets hold non-standard residues; d marks the D form. Peptide text beside a SMILES is read from it. * marks the point of attachment. TBMB(SCH2CH2NH-DOTA) = O=C(O)CN1CCN(CC(=O)O)CCN(CC(=O)NCCSCc2cc(C[*:1])cc(C[*:2])c2)CCN(CC(=O)O)CC1; X5 = O=C(O)CN1CCN(CC(=O)O)CCN(CC(=O)NCCSCc2cc(CSC[C@@H](CO)N[*:2])cc(C[*:1])c2)CCN(CC(=O)O)CC1; X1 = O=C(O)CN1CCN(CC(=O)O)CCN(CC(=O)N2CCN(Cc3cc(C[*:1])cc(C[*:2])c3)CC2)CCN(CC(=O)O)CC1; X52 = NCCOCCOCC(=O)N1CCN(Cc2cc(C[*:1])cc(C[*:2])c2)CC1; X39 = NCCOCCOCC(=O)NCCSCc1cc(C[*:1])cc(C[*:2])c1; mXylylene = c1cc(C[*:1])cc(C[*:2])c1; X25 = NCCSCc1cc(C[*:1])cc(C[*:2])c1; X41 = NCCCCCC(=O)NCCCOCCOCCOCCCN*; Suc = O=C(CCC(=O)[*:2])[*:1]; Nle = CCCC[C@H](N)C(=O)O; Hexanoyl = CCCCCC(=O)*; Sar = CNCC(=O)O

Experiments:
Human recombinant FAP = molecular target: T1, Human recombinant FAP (Homo sapiens, UniProt Q12884); test: FRET-based FAP protease activity assay; assay type: biochemical; parameters: purchased R&D systems 3715-SE; conditions: pIC50 Category (Activity), FRET substrate, 37° C.
T1 sequence (Q12884 1-760): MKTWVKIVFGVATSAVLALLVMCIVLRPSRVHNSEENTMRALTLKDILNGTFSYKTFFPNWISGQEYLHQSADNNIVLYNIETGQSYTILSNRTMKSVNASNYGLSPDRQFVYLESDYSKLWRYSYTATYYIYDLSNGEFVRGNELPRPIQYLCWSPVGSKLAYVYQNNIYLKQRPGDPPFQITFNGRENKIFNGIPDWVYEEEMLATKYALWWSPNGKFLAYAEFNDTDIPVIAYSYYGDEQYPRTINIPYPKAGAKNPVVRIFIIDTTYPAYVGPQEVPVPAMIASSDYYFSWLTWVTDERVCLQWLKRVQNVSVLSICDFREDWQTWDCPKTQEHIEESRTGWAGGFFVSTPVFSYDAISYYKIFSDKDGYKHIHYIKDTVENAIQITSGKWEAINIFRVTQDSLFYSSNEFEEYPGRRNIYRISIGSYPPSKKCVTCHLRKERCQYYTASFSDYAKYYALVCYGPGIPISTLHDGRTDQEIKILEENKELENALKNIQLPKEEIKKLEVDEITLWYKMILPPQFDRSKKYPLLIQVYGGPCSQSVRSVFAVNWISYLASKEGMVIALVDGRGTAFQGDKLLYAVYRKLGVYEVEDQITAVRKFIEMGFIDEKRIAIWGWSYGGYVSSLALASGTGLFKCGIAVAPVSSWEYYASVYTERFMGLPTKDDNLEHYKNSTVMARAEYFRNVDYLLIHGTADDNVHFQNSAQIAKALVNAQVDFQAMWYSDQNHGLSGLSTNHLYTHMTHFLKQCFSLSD

[1] = molecular target: T2, FAP-expressing human WI-38 fibroblasts (Homo sapiens, UniProt Q12884); test: Competitive FACS binding assay; conditions: competition with 3 nM Cy5-labeled compound, 4° C., 1 hour; for IC50: pIC50 Category (FACS)
T2 construct: FAP-expressing human WI-38 fibroblasts (ECACC) were cultured in EMEM; host or cells: WI-38 human fibroblasts
T2 sequence (Q12884 1-760): T1 sequence (Q12884 1-760)
Experimental: Cells were analyzed in an Attune NxT flow cytometer. […]

Compound	IC50 (Human recombinant FAP)	IC50 [1]	pIC50 Category (FACS) [1]
CCCCCC(=O)N[C@H]1CSCc2cc(cc(CN3CCN(C(=O)CN4CCN5CCN6CCN(CC4)CC(=O)[O][Eu]([O]C(=O)C6)[O]C(=O)C5)CC3)c2)CSC[C@@H](C(=O)N[C@@H](CC(=O)O)C(N)=O)NC(=O)[C@H](Cc2ccccc2)NC(=O)[C@H](CCC(N)=O)NC(=O)[C@H]([C@@H](C)O)NC(=O)[C@@H]2CCCN2C(=O)[C@@H]2CCCN2C1 [3BP-3661, Europium-Complex of Hex-[Cys(tMeBn(DOTA-PP))-Pro-Pro-Thr-Gln-Phe-Cys]-Asp-NH2]	< 10 nM	< 10 nM	–
CCCCCC(=O)N[C@H]1CSCc2cc(CSCCNC(=O)CN3CCN4CCN5CCN(CC3)CC(=O)[O][Eu]([O]C(=O)C4)[O]C(=O)C5)cc(c2)CSC[C@@H](C(=O)O)NC(=O)[C@H](Cc2ccccc2)NC(=O)[C@H](CCC(N)=O)NC(=O)[C@H]([C@@H](C)O)NC(=O)[C@@H]2CCCN2C(=O)[C@@H]2CCCN2C1 [3BP-3662, Europium-Complex of Hex-[Cys(tMeBn(DOTA-AET))-Pro-Pro-Thr-Gln-Phe-Cys]-OH]	< 10 nM	< 10 nM	–
CCCCCC(=O)N[C@H]1CSCc2cc(CSCCNC(=O)CN3CCN(CC(=O)O)CCN(CC(=O)O)CCN(CC(=O)O)CC3)cc(c2)CSC[C@@H](C(=O)O)NC(=O)[C@H](Cc2cccnc2)NC(=O)[C@H](CCC(N)=O)NC(=O)[C@H]([C@@H](C)O)NC(=O)[C@@H]2CCCN2C(=O)[C@@H]2CCCN2C1 [3BP-3664, Hex-[Cys(tMeBn(DOTA-AET))-Pro-Pro-Thr-Gln-Mpa-Cys]-OH]	< 10 nM	< 10 nM	–
CCCCCS(=O)(=O)N[C@H]1CSCc2cc(CSCCNC(=O)CN3CCN(CC(=O)O)CCN(CC(=O)O)CCN(CC(=O)O)CC3)cc(c2)CSC[C@@H](C(=O)O)NC(=O)[C@H](Cc2ccccc2)NC(=O)[C@H](CCC(N)=O)NC(=O)[C@H]([C@@H](C)O)NC(=O)[C@@H]2CCCN2C(=O)[C@@H]2CCCN2C1=O [3BP-3691, Pentyl-SO2-[Cys(tMeBn(DOTA-AET))-Pro-Pro-Thr-Glu-Phe-Cys]-OH]	10 to 79.4 nM	–	A (pIC50 values >8.0)
CCCCCC(=O)N[C@H]1CSCc2cc(CSCCNC(=O)CN3CCN(CC(=O)O)CCN(CC(=O)O)CCN(CC(=O)O)CC3)cc(c2)CSC[C@@H](C(N)=O)NC(=O)[C@H](Cc2ccccc2)NC(=O)[C@H](CCC(N)=O)NC(=O)[C@H]([C@@H](C)O)NC(=O)[C@@H]2CCCN2C(=O)CN(C)C1=O [3BP-3744, Hex-[Cys(tMeBn(DOTA-AET))-Nmg-Pro-Thr-Gln-Phe-Cys]-NH2] (Hexanoyl-C[Sar]PTQFC-NH2; linker 1-7 via TBMB(SCH2CH2NH-DOTA))	< 10 nM	< 10 nM	–
CCCCCC(=O)N[C@H]1CSCc2cc(CSCCNC(=O)CN3CCN(CC(=O)O)CCN(CC(=O)O)CCN(CC(=O)O)CC3)cc(c2)CSC[C@@H](CO)NC(=O)[C@H](Cc2ccccc2)NC(=O)[C@H](CCC(N)=O)NC(=O)[C@H]([C@@H](C)O)NC(=O)[C@@H]2CCCN2C(=O)[C@@H]2CCCN2C1=O [3BP-3762, Hex-[Cys(tMeBn(DOTA-AET))-Pro-Pro-Thr-Gln-Phe-Cysol]] (Hexanoyl-CPPTQF; linker 1-C via X5)	100 to 794 nM	> 1000 nM	–
CCCCCC(=O)N[C@H]1CSCc2cc(CSCCNC(=O)CN3CCN(CC(=O)O)CCN(CC(=O)O)CCN(CC(=O)O)CC3)cc(c2)CSC[C@@H](CO)NC(=O)[C@H](Cc2ccccc2)NC(=O)[C@H](CCC(N)=O)NC(=O)[C@H]([C@@H](C)O)NC(=O)[C@@H]2CCCN2C(=O)[C@@H]2CCCN2C1=O [3BP-3767, Hex-[Cys(tMeBn(DOTA-AET))-Pro-Pro-Thr-Gln-Phe-Cysol]] (Hexanoyl-CPPTQF; linker 1-C via X5)	< 10 nM	< 10 nM	–
CCCCCC(=O)N[C@H]1CSCc2cc(cc(CN3CCN(C(=O)CN4CCN5CCN6CCN(CC4)CC(=O)[O][In]([O]C(=O)C6)[O]C(=O)C5)CC3)c2)CSC[C@@H](C(=O)O)NC(=O)[C@H](Cc2ccccc2)NC(=O)[C@H](CCC(N)=O)NC(=O)[C@H]([C@@H](C)O)NC(=O)[C@@H]2CCCN2C(=O)[C@@H]2CCCN2C1=O [3BP-3770, Hex-[Cys(tMeBn(InDOTA-PP))-Pro-Pro-Thr-Gln-Phe-Cys]-OH]	< 10 nM	< 10 nM	–
CCCCCC(=O)N[C@H]1CSCc2cc(cc(CN3CCN(C(=O)CN4CCN(CC(=O)O)CCN(CC(=O)O)CCN(CC(=O)O)CC4)CC3)c2)CSC[C@@H](C(=O)O)NC(=O)[C@H](Cc2ccccc2)NC(=O)[C@H](CCC(N)=O)NC(=O)[C@H]([C@@H](C)O)NC(=O)[C@@H]2CCCN2C(=O)CN(C)C1=O [3BP-3771, Hex-[Cys(tMeBn(DOTA-PP))-Nmg-Pro-Thr-Gln-Phe-Cys]-OH] (Hexanoyl-C[Sar]PTQFC-OH; linker 1-7 via X1)	< 10 nM	< 10 nM	–
CCCCCC(=O)N[C@H]1CSCc2cc(cc(CN3CCN(C(=O)COCCOCCN)CC3)c2)CSC[C@@H](C(=O)N[C@@H](CC(=O)O)C(N)=O)NC(=O)[C@H](Cc2ccccc2)NC(=O)[C@H](CCC(N)=O)NC(=O)[C@H]([C@@H](C)O)NC(=O)[C@@H]2CCCN2C(=O)[C@@H]2CCCN2C1=O [3BP-3967, Hex-[Cys-(tMeBn(H-O2Oc-PP))-Pro-Pro-Thr-Gln-Phe-Cys]-Asp-NH2] (Hexanoyl-CPPTQFCD-NH2; linker 1-7 via X52)	< 10 nM	< 10 nM	–
CCCC[C@H](NC(=O)CCC(=O)NCCCOCCOCCOCCCNC(=O)CCCCCN)C(=O)N[C@H]1CSCc2cccc(c2)CSC[C@@H](C(=O)N[C@@H](CC(=O)O)C(N)=O)NC(=O)[C@H](Cc2ccccc2)NC(=O)[C@H](CCC(N)=O)NC(=O)[C@H]([C@@H](C)O)NC(=O)[C@@H]2CCCN2C(=O)[C@@H]2CCCN2C1=O [3BP-3980, H-Ahx-Ttds-Nle-[Cys-(3MeBn)-Pro-Pro-Thr-Gln-Phe-Cys]-Asp-NH2] ({X41-Suc}-[Nle]CPPTQFCD-NH2; linker 2-8 via mXylylene)	< 10 nM	< 10 nM	–
CCCCCC(=O)N[C@H]1CSCc2cc(CSCCN)cc(c2)CSC[C@@H](C(=O)N[C@@H](CC(=O)O)C(N)=O)NC(=O)[C@H](Cc2ccccc2)NC(=O)[C@H](CCC(N)=O)NC(=O)[C@H]([C@@H](C)O)NC(=O)[C@@H]2CCCN2C(=O)[C@@H]2CCCN2C1=O [3BP-3981, Hex-[Cys-(tMeBn(H-AET))-Pro-Pro-Thr-Gln-Phe-Cys]-Asp-NH2] (Hexanoyl-CPPTQFCD-NH2; linker 1-7 via X25)	< 10 nM	10 to 79.4 nM	–
CCCCCC(=O)N[C@H]1CSCc2cc(CSCCNC(=O)COCCOCCN)cc(c2)CSC[C@@H](C(=O)N[C@@H](CC(=O)O)C(N)=O)NC(=O)[C@H](Cc2ccccc2)NC(=O)[C@H](CCC(N)=O)NC(=O)[C@H]([C@@H](C)O)NC(=O)[C@@H]2CCCN2C(=O)[C@@H]2CCCN2C1=O [3BP-4003, Hex-[Cys-(tMeBn(H-O2Oc-AET))-Pro-Pro-Thr-Gln-Phe-Cys]-Asp-NH2] (Hexanoyl-CPPTQFCD-NH2; linker 1-7 via X39)	< 10 nM	< 10 nM	–
CCCC[C@H](NC(=O)CCC(=O)NCCCOCCOCCOCCCNC(=O)CCCCCN)C(=O)N[C@H]1CSCc2cc(cc(CN3CCN(C(=O)CN4CCN(CC(=O)O)CCN(CC(=O)O)CCN(CC(=O)O)CC4)CC3)c2)CSC[C@@H](C(=O)N[C@@H](CC(=O)O)C(N)=O)NC(=O)[C@H](Cc2ccccc2)NC(=O)[C@H](CCC(N)=O)NC(=O)[C@H]([C@@H](C)O)NC(=O)[C@@H]2CCCN2C(=O)[C@@H]2CCCN2C1=O [3BP-4004, H-Ahx-Ttds-Nle-[Cys-(tMeBn(DOTA-PP))-Pro-Pro-Thr-Gln-Phe-Cys]-Asp-NH2] ({X41-Suc}-[Nle]CPPTQFCD-NH2; linker 2-8 via X1)	< 10 nM	10 to 79.4 nM	–
CCCCCC(=O)N[C@H]1CSCc2cc(CSCCN)cc(c2)CSC[C@@H](C(=O)O)NC(=O)[C@H](Cc2ccccc2)NC(=O)[C@H](CCC(N)=O)NC(=O)[C@H]([C@@H](C)O)NC(=O)[C@@H]2CCCN2C(=O)[C@@H]2CCCN2C1=O [3BP-4089, Hex-[Cys(tMeBn(H-AET))-Pro-Pro-Thr-Gln-Phe-Cys]-OH]	10 to 79.4 nM	100 to 794 nM	–
CCCCCC(=O)N[C@@H]1CSCc2cc(CSCCNC(=O)CN3CCN(CC(=O)O)CCN(CC(=O)O)CCN(CC(=O)O)CC3)cc(c2)CSC[C@@H](C(=O)O)NC(=O)[C@H](Cc2ccccc2)NC(=O)[C@H](CCC(N)=O)NC(=O)[C@H]([C@@H](C)O)NC(=O)[C@@H]2CCCN2C(=O)[C@@H]2CCCN2C1=O [3BP-4109, Hex-[D-Cys-(tMeBn(DOTA-AET))-Pro-Pro-Thr-Gln-Phe-Cys]-OH]	< 10 nM	< 10 nM	–
CCCCCC(=O)N[C@@H]1CSCc2cc(CSCCNC(=O)CN3CCN(CC(=O)O)CCN(CC(=O)O)CCN(CC(=O)O)CC3)cc(c2)CSC[C@H](C(=O)O)NC(=O)[C@H](Cc2ccccc2)NC(=O)[C@H](CCC(N)=O)NC(=O)[C@H]([C@@H](C)O)NC(=O)[C@@H]2CCCN2C(=O)[C@@H]2CCCN2C1=O [3BP-4110, Hex-[D-Cys-(tMeBn(DOTA-AET))-Pro-Pro-Thr-Gln-Phe-D-Cys]-OH]	10 to 79.4 nM	10 to 79.4 nM	–
